Converted amounts (≈) assume the structure as drawn. “Also recorded” adds a separate entry of the source.
Columns and labels:
[1] = test system: USA300 strain of MRSA (NRS384); test: In vitro macrophage assay (intracellular killing of opsonized MRSA); format: cell-based, Staphylococcus aureus; details: for CFU/well after treatment: 100 μg/mL, reduced from 10,000 CFU/well; for Macrophage assay activity: in vitro macrophage assay (Example 18), grades 0, weak, 1+ not defined
Experimental: (§1) Peritoneal macrophages were isolated from the peritoneum of 6-8 week old Balb/c mice (Charles River Laboratories, Hollister, Calif.). To increase the yield of macrophages, mice were pre-treated by intraperitoneal injection with 1 mL of thioglycolate media (Becton Dickinson). The thioglycolate media was prepared at a concentration of 4% in water, sterilized by autoclaving, and aged for 20 days to 6 months prior to use. Peritoneal macrophages were harvested 4 days post treatment with thioglycolate by washing the peritoneal cavity with cold phosphate buffered saline. Macrophages were plated in Dulbecco's Modified Eagle Medium (DMEM) supplemented with 10% Fetal Calf Serum, and 10 mM HEPES, without antibiotics, at a density of 4×10^5 cells/well in 24 well culture dishes. Macrophages were cultured over night to permit adherence to the plate. This assay was also utilized to test intracellular killing in non-phagocytic cell types. MG63 (CRL-1427) and A549 (CCL185) cell lines were obtained from ATCC and maintained in RPMI 1640 tissue culture media supplemented with 10 mM Hepes and 10% Fetal Calf Serum (RPMI-10). HUVEC cells were obtained from Lonza and maintained in EGM Endothelial Cell Complete Media (Lonza, Walkersville, Md.).

[2] = test system: MRSA (NRS384 strain of USA300); test: MIC determination / killing of intracellular bacteria in mouse peritoneal macrophages; format: cell-based, Staphylococcus aureus; details: for killing of intracellular MRSA sequestered inside macrophages: doses including clinically achieveable serum levels
[3] = test system: MRSA (NRS384 strain of USA300); test: MIC determination for extracellular bacteria; format: cell-based; details: Staphylococcus aureus, read-out: Extracellular MRSA MIC
Experimental: Dilutions of the antibiotic were made in quadruplicate in 96 well culture dishes. MRSA (NRS384 strain of USA300) was taken from an exponentially growing culture and diluted to 1×10^4 CFU/mL. Bacteria was cultured in the presence of antibiotic for 18-24 hours with shaking at 37° C. and bacterial growth was determined by reading the Optical Density (OD) at […]. The MIC was determined to be the dose of antibiotic that inhibited bacterial growth by >90%.

MRSA [4] = test: Intravenous infection model, established infection in CB17.SCID mice; format: in vivo; details: treated 1 day after infection; AAC 50 mg/Kg, antibiotic 0.5 mg/Kg; kidneys day 4
Experimental: Mice were treated with the AAC 30 minutes after infection. To better replicate conditions likely to occur in MRSA patients seeking treatment, it was determined whether the AAC is effective at clearing an established infection and that linking of the antibiotic to an anti-S. aureus antibody provides a definite advantage over treatment with antibiotic alone. To this end, the efficacy of AAC with an equivalent dose of the antibiotic dimethyl-pipBOR was compared.
One day after infection, the mice were treated with 50 mg/Kg of S4497 antibody, 50 mg/Kg of S4497 dimethyl-pipBOR AAC 105 or with 0.5 mg/Kg of dimethyl-pipBOR antibiotic 7, the equivalent dose of antibiotic that is contained in 50 mg/Kg of AAC). Mice were sacrificed 4 days after infection and the total number of surviving bacteria per mouse (2 kidneys pooled) was determined by plating.
7 week old female mice were used for all in vivo experiments and infections were carried out by intravenous injection into the tail vein. A/J mice (Jackson Lab) were infected with a dose of 2×10^6 CFU. Balb/c mice (Charles River Laboratories, Hollister, Calif.) were infected with a dose of 2×10^7 CFU. […] The total number of bacteria recovered per mouse (2 kidneys) was determined by plating serial dilutions of the tissue homogenate in PBS 0.05% Tween on Tryptic Soy Agar with 5% defibrinated sheep blood.

MRSA [5] = test: Cathepsin release / growth inhibition assay; format: cell-based, S. aureus; details: overnight culture, up to 10 μg/mL of AAC
Experimental: An AAC comprising antibody rF1, which binds to a family of cell wall associated proteins was conjugated to a rifamycin derivative. S. aureus (Newman strain) was treated with various doses of the rF1-AAC or with equivalent doses of either antibody alone, rifampicin alone or a mixture of antibody and free rifampicin to permit antibody binding to the bacteria (opsonization) and after 1 hour incubation the opsonized bacteria were fed to macrophages (FIG. 7A).
See: page 863 of Dubowchik et al (2002) Bioconj. Chem. 13:855-869, incorporated by reference for the purposes of this assay. Cathepsin B (from bovine spleen, SIGMA C7800) was added at 10 μg/mL and the samples were incubated for 1 hour at 37° C. As a control, AAC were incubated in buffer alone. The reaction was stopped by addition of 10 volumes of bacterial growth media, Tryptic Soy Broth pH 7.4 (TSB). To estimate the total release of active antibiotic, serial dilutions of the reaction mixture were made in quadruplicate in TSB in 96 well plates and the USA300 strain of S. aureus was added to each well at a final density of 2×10^3 CFU/mL. The cultures were incubated over night at […] with shaking and bacterial growth was measured by reading absorbance at 630 nm using a plate reader.

MRSA (USA300) = test: Peritonitis model (intraperitoneal infection); format: in vivo, A/J mice; details: 50 mg/Kg thirty minutes after infection; 2 days
Text: An in vivo peritonitis model in mice was established to test the efficacy of AAC. In this model, mice are infected by intraperitoneal injection (I.P.) of MRSA and the bacterial load is monitored 2 days after infection in the peritoneal fluid and kidney. Bacteria harvested from the peritoneum could be found either as free floating extracellular bacteria or internalized inside peritoneal cells—primarily neutrophils and macrophages—that are recruited to the site of the infection.
Intraperitoneal infection model in A/J mice. Mice were infected with 5×10^7 CFU of MRSA by intraperitoneal injection and treated with 50 mg/Kg of S4497 antibody alone or with 50 mg/Kg of the S4497-pipBOR AAC 102 by intraperitoneal injection (protocol 11-2032A). Mice were sacrificed 2 days post infection and the total bacterial load was assessed in the peritoneal supernatant (Extracellular bacteria), peritoneal cells (Intracellular bacteria) or in the kidney.
A/J mice were infected with USA300 and administered 50 mg/Kg of either S4497 antibody or S4497-pipBOR AAC 102 thirty minutes after infection. After 2 days, the mice were sacrificed and bacterial loads were monitored in the peritoneal wash and the kidney. To distinguish between extracellular and intracellular bacteria, the peritoneal wash was centrifuged gently to separate the supernatant, containing extracellular bacteria, and the peritoneal cells. […]

MRSA (USA300 strain) [6] = test: Intracellular killing in macrophages and non-phagocytic cell types (MG63, A549, HUVEC); format: cell-based, Staphylococcus aureus; details: 50 μg/mL, macrophages
Text: MRSA is able to invade a number of non-phagocytic cell types including osteoblasts and various epithelial and endothelial cell types (Garzoni and Kelly, (2008) Trends in Microbiology). MRSA is able to infect an osteoblast cell line (MG63), an airway epithelial cell line (A549) and primary cultures of human umbilical vein endothelial cells (HUVEC). […] The dashed line indicates the limit of detection for the assay.
as §1, with “MG63 (CRL-1427) and A549 (CCL185) cell lines were obtained from ATCC and maintained in RPMI 1640 tissue culture media supplemented with 10 mM Hepes and 10% Fetal Calf Serum (RPMI-10). HUVEC cells were obtained from Lonza and maintained in EGM Endothelial Cell Complete Media (Lonza, Walkersville, Md.).” left out

MRSA (USA300 strain) [7] = test: Intravenous infection model in A/J mice; format: in vivo

Row | Compound | Macrophage assay activity [1] | other results
1 | thio-S4497-HC-A118C-MC-vc-PABC-(teicoplanin) [AAC 108] | weak | CFU/well after treatment [1]: about 500 CFU/well
2 | thio-S4497-HC-A118C-MC-vc-PAB-(triclosan) [AAC 109] | 0 | 
3 | thio-S4497-HC-A118C-MC-vc-PAB-(clindamycin) [AAC 101] | 0 | 
4 | thio-S4497-HC-A118C-MC-vc-PABC-(GSK-2140944) [AAC 105] | 0 | 
5 | thio-S4497-HC-A118C-MC-vc-PABC-(daptomycin) [AAC 104] | 0 | 
6 | thio-S4497-HC-A118C-MC-vc-PAB-(retapamulin) [AAC 103] | 0 | 
7 | thio-S4497-HC-A118C-MC-vc-PABC-(ampicillin) [AAC 113] | 0 | 
8 | CCCCCCCCCC(=O)N[C@@H](Cc1c[nH]c2ccccc12)C(=O)N[C@H](CC(N)=O)C(=O)N[C@@H](CC(=O)O)C(=O)N[C@@H]1C(=O)NCC(=O)N[C@@H](CCCN)C(=O)N[C@@H](CC(=O)O)C(=O)N[C@H](C)C(=O)N[C@@H](CC(=O)O)C(=O)NCC(=O)N[C@H](CO)C(=O)N[C@@H]([C@H](C)CC(=O)O)C(=O)N[C@@H](CC(=O)c2ccccc2N)C(=O)O[C@@H]1C [Daptomycin] |  | MIC ([2]; Staphylococcus aureus, 24 h, MRSA inside mouse peritoneal macrophages, […]): > 100 µg/mL; killing of intracellular MRSA sequestered inside macrophages [2]: failed to kill; MIC [3]: 4 µg/mL (≈ 2.47 µM)
9 | thio-S4497-v8-LC-V205C-(azithromycin) [AAC 121] | 0 | 
10 | piperidyl benzoxazino rifamycin [pipBOR] |  | killing of intracellular MRSA as free antibiotics relative to rifampicin [2]: more potent than rifampicin
11 | thio-S4497-v8-LC-cys-MC-vc-PAB-(nosiheptide) [AAC 149] | 0 | 
12 | CO[C@H]1/C=C/O[C@@]2(C)Oc3c(C)c(O)c4c(=O)c(c5oc6cc(N7CCC(N(C)C)CC7)cc(O)c6nc-5c4c3C2=O)NC(=O)/C(C)=C\C=C\[C@H](C)[C@H](O)[C@@H](C)[C@@H](O)[C@@H](C)[C@H](OC(C)=O)[C@@H]1C [dimethyl-pipBOR, dimethylpiperidyl benzoxazino rifamycin] |  | efficacy against established infection (MRSA [4]): failed to clear the infection; killing of intracellular MRSA as free antibiotics relative to rifampicin [2]: more potent than rifampicin
13 | thio-S4497-HC-A118C-MC-vc-PAB-(novobiocin) [AAC 102] | 0 | 
14 | thio-S4497-HC-A118C-MC-vc-PABC-(sitafloxacin) [AAC 107] | weak | CFU/well after treatment [1]: about 5,000 CFU/well
15 | CC(=O)NC[C@H]1CN(c2ccc(N3CCOCC3)c(F)c2)C(=O)O1 [Linezolid] |  | killing of intracellular MRSA sequestered inside macrophages [2]: failed to kill
16 | thio-S4497-v8-LC-V205C-MC-vc-PABC-(teicoplanin) [AAC 140] | 0 | 
17 | thio-S4497-v8-LC-V205C-(thiostrepton) [AAC 141] | 0 | 
18 | thio-S4497-HC-A118C-MC-vc-PABC-(pipBOR) [S4497-pipBOR AAC 102] |  | inhibition of bacterial growth by AAC not pre-treated with cathepsin B (MRSA [5]): did not result in inhibition of bacterial growth; clearance of infection (peritoneal wash and kidney) (MRSA (USA300)): cleared the infection to below the limit of detection; intracellular killing of MRSA (MRSA (USA300 strain) [6]): effectively killed; efficacy at 50 mg/Kg (kidney bacterial load) (MRSA (USA300 strain) [7]; 50 mg/Kg IV 30 minutes post infection, kidneys 4 days post infection): cleared the infection in all of the mice tested; also recorded: effective; efficacy at lower doses (MRSA (USA300 strain) [7]; doses below 50 mg/Kg down to 2 m/Kg, 30 minutes after infection): only partially efficacious
19 | thio-S4497 WT (V8), LC V205C-(thiostrepton) [AAC 128] | 0 | 

From US9884126B2, “Anti-wall teichoic antibodies and conjugates” (priority 2013, dated 2018)
